Experiments:
[1] = molecular target: Galectin-1 (Homo sapiens, UniProt P09382); experiment: Fluorescence anisotropy assay, inhibition of galectin / fluorescein tagged saccharide probe interaction; type: binding
Method: (§1) The affinity of Example 1-28 for galectins were determined by a fluorescence anisotropy assay where the compound was used as an inhibitor of the interaction between galectin and a fluorescein tagged saccharide probe as described Sörme, P., Kahl-Knutsson, B., Huflejt, M., Nilsson, U. J., and Leffler H. (2004) Fluorescence polarization as an analytical tool to evaluate galectin-ligand interactions. Anal. Biochem. 334: 36-47, (Sörme et al., 2004) and Monovalent interactions of Galectin-1 By Salomonsson, Emma; Larumbe, Amaia; Tejler, Johan; Tullberg, Erik; Rydberg, Hanna; Sundin, Anders; Khabut, Areej; Frejd, Torbjorn; Lobsanov, Yuri D.; Rini, James M.; et al, From Biochemistry (2010), 49(44), 9518-9532, (Salomonsson et al., 2010).

[2] = molecular target: Galectin-3 (Homo sapiens, UniProt P17931); experiment: as above; type: binding
Sequence of Galectin-3 (P17931 whole entry): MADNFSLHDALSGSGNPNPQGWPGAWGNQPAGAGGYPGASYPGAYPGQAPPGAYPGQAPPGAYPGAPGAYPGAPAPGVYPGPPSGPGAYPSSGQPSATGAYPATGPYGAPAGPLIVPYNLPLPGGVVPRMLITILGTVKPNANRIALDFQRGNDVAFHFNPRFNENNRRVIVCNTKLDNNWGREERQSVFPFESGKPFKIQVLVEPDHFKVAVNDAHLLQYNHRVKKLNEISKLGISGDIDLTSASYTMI
Method: as §1

Sequence of Galectin-1 (P09382 whole entry): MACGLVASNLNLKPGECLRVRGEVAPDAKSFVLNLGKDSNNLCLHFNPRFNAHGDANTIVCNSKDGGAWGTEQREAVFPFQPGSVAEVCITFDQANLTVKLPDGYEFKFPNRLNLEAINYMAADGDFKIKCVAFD

Structure (SMILES)	Kd [1] [µM]	Kd [2] [µM]
OCC1O[C@H](Sc2ccc(Cl)c(Cl)c2)C(OCc2nnn[nH]2)C(n2cc(-c3cc(F)c(Cl)c(F)c3)nn2)[C@H]1O (stereo in doubt) [Example 13, 3,4-Dichlorphenyl 3-[4-(4-chloro-3,5-difluorophenyl)-1H-1,2,3-triazol-1-yl]-3-deoxy-2-O-[(1H-tetrazol-5-yl)methyl]-1-thio-α-D-galactopyranoside]	1.4	0.064
OCC1O[C@H](Sc2ccc(Cl)c(Cl)c2)C(OCc2nnn[nH]2)C(n2cc(-c3cc(F)c(F)c(F)c3)nn2)[C@H]1O (stereo in doubt) [Example 14, 3,4-Dichlorphenyl 3-deoxy-3-[4-(3,4,5-trifluorophenyl)-1H-1,2,3-triazol-1-yl]-2-O-[(1H-tetrazol-5-yl)methyl]-1-thio-α-D-galactopyranoside]	1.8	0.008
O=P(O)(O)O[C@@H]1[C@@H](n2cc(-c3cc(F)c(F)c(F)c3)nn2)[C@@H](O)[C@@H](CO)O[C@@H]1Sc1cncc(Br)c1 [Example 1, 5-Bromopyridin-3-yl 3-deoxy-3-[4-(3,4,5-trifluorophenyl)-1H-1,2,3-triazol-1-yl]-2-O-phospho-1-thio-α-D-galactopyranoside]	5.4	–
O=S(=O)(O)O[C@@H]1[C@@H](n2cc(-c3cc(F)c(F)c(F)c3)nn2)[C@@H](O)[C@@H](CO)O[C@@H]1Sc1cncc(Br)c1 [Example 4, 5-Bromopyridin-3-yl 3-deoxy-3-[4-(3,4,5-trifluorophenyl)-1H-1,2,3-triazol-1-yl]-2-O-sulfo-1-thio-α-D-galactopyranside]	3.15	0.003
O=C(O)CO[C@@H]1[C@@H](n2cc(-c3cc(F)c(F)c(F)c3)nn2)[C@@H](O)[C@@H](CO)O[C@@H]1Sc1ccc(Cl)c(Cl)c1 [Example 6, 3,4-Dichlorphenyl 2-O-carboxymethyl-3-deoxy-3-[4-(3,4,5-trifluorophenyl)-1H-1,2,3-triazol-1-yl]-1-thio-α-D-galactopyranoside]	–	0.017
OC[C@H]1O[C@H](Sc2cncc(Br)c2)[C@H](OCc2cocn2)[C@@H](n2cc(-c3cc(F)c(F)c(F)c3)nn2)[C@H]1O [Example 10, 5-Bromopyridin-3-yl 3-deoxy-3-[4-(3,4,5-trifluorophenyl)-1H-1,2,3-triazol-1-yl]-2-O-(oxazol-4-ylmethyl)-1-thio-α-D-galactopyranoside]	9.2	0.024
OC[C@H]1O[C@H](Sc2cncc(Br)c2)[C@H](OCc2cc(F)c(O)c(F)c2)[C@@H](n2cc(-c3cc(F)c(F)c(F)c3)nn2)[C@H]1O [Example 11, 5-Bromopyridin-3-yl 3-deoxy-3-[4-(3,4,5-trifluorophenyl)-1H-1,2,3-triazol-1-yl]-2-O-(3,5-difluoro-4-hydroxybenzyl)-1-thio-α-D-galactopyranoside]	0.26	0.017
OC[C@H]1O[C@H](Sc2cncc(Br)c2)[C@H](OCc2nnn[nH]2)[C@@H](n2cc(-c3cc(F)c(F)c(F)c3)nn2)[C@H]1O [Example 12, 5-Bromopyridin-3-yl 3-deoxy-3-[4-(3,4,5-trifluorophenyl)-1H-1,2,3-triazol-1-yl]-2-O-[(1H-tetrazol-5-yl)methyl]-1-thio-α-D-galactopyranoside]	2.4	0.016
OC[C@H]1O[C@H](Sc2cncc(Br)c2)[C@H](OCc2ncc[nH]2)[C@@H](n2cc(-c3cc(F)c(F)c(F)c3)nn2)[C@H]1O [Example 15, 5-Bromopyridin-3-yl 3-deoxy-3-[4-(3,4,5-trifluorophenyl)-1H-1,2,3-triazol-1-yl]-2-O-[(1H-imidazol-2-yl)methyl]-1-thio-α-D-galactopyranoside]	9.5	0.007
Cn1ccnc1CO[C@@H]1[C@@H](n2cc(-c3cc(F)c(F)c(F)c3)nn2)[C@@H](O)[C@@H](CO)O[C@@H]1Sc1cncc(Br)c1 [Example 16, 5-Bromopyridin-3-yl 3-deoxy-3-[4-(3,4,5-trifluorophenyl)-1H-1,2,3-triazol-1-yl]-2-O-[(1-methyl-1H-imidazol-2-yl)methyl]-1-thio-α-D-galactopyranoside]	6.4	0.057
OC[C@H]1O[C@H](Sc2cncc(Br)c2)[C@H](OCc2ncco2)[C@@H](n2cc(-c3cc(F)c(F)c(F)c3)nn2)[C@H]1O [Example 17, 5-Bromopyridin-3-yl 3-deoxy-3-[4-(3,4,5-trifluorophenyl)-1H-1,2,3-triazol-1-yl]-2-O-[(oxazol-2-yl)methyl]-1-thio-α-D-galactopyranoside]	2.8	0.024
OC[C@H]1O[C@H](Sc2cncc(Br)c2)[C@H](OCc2cnco2)[C@@H](n2cc(-c3cc(F)c(F)c(F)c3)nn2)[C@H]1O [Example 18, 5-Bromopyridin-3-yl 3-deoxy-3-[4-(3,4,5-trifluorophenyl)-1H-1,2,3-triazol-1-yl]-2-O-[(oxazol-5-yl)methyl]-1-thio-α-D-galactopyranoside]	14.8	0.13
OC[C@H]1O[C@H](Sc2cncc(Br)c2)[C@H](OCc2ccon2)[C@@H](n2cc(-c3cc(F)c(F)c(F)c3)nn2)[C@H]1O [Example 19, 5-Bromopyridin-3-yl 3-deoxy-3-[4-(3,4,5-trifluorophenyl)-1H-1,2,3-triazol-1-yl]-2-O-[(isoxazol-3-yl)methyl]-1-thio-α-D-galactopyranoside]	2.9	0.032

The next lines start with the values.

Kd [1] [µM]	Kd [2] [µM]	Structure (SMILES)
6.5	0.015	CC(OC1C(n2cc(-c3cc(F)c(F)c(F)c3)nn2)[C@@H](O)C(CO)O[C@@H]1Sc1cncc(Br)c1)C(=O)O (single isomer, unassigned; diastereomer 1) [Example 27]
6.4	0.006	CC(OC1C(n2cc(-c3cc(F)c(F)c(F)c3)nn2)[C@@H](O)C(CO)O[C@@H]1Sc1cncc(Br)c1)C(=O)O (single isomer, unassigned; diastereomer 2) [Example 28]
29.7	0.087	OCC1O[C@H](Sc2ccc(Cl)c(Cl)c2)C(OCc2cocn2)C(n2cc(-c3cc(F)c(Cl)c(F)c3)nn2)[C@H]1O (stereo partly drawn) [Example 20, 3,4-Dichlorphenyl 3-[4-(4-chloro-3,5-difluorophenyl)-1H-1,2,3-triazol-1-yl]-3-deoxy-2-O-[(oxazol-4-yl)methyl]-1-thio-α-D-galactopyranoside]
8.6	0.018	OC[C@H]1O[C@H](Sc2cncc(Br)c2)[C@H](OCc2cscn2)[C@@H](n2cc(-c3cc(F)c(F)c(F)c3)nn2)[C@H]1O [Example 21, 5-Bromopyridin-3-yl 3-deoxy-3-[4-(3,4,5-trifluorophenyl)-1H-1,2,3-triazol-1-yl]-2-O-[(thiazol-4-yl)methyl]-1-thio-α-D-galactopyranoside]
1.9	0.021	OC[C@H]1O[C@H](Sc2cncc(Br)c2)[C@H](OCc2cncs2)[C@@H](n2cc(-c3cc(F)c(F)c(F)c3)nn2)[C@H]1O [Example 22, 5-Bromopyridin-3-yl 3-deoxy-3-[4-(3,4,5-trifluorophenyl)-1H-1,2,3-triazol-1-yl]-2-O-[(thiazol-5-yl)methyl]-1-thio-α-D-galactopyranoside]
2.6	0.041	OC[C@H]1O[C@H](Sc2cncc(Br)c2)[C@H](OCc2nccs2)[C@@H](n2cc(-c3cc(F)c(F)c(F)c3)nn2)[C@H]1O [Example 23, 5-Bromopyridin-3-yl 3-deoxy-3-[4-(3,4,5-trifluorophenyl)-1H-1,2,3-triazol-1-yl]-2-O-[(thiazol-2-yl)methyl]-1-thio-α-D-galactopyranoside]

— patent US12497428B2, “Galactoside inhibitor of galectins” (GALECTO BIOTECH AB, priority 2018, dated 2025)
